Data from ChEMBL document CHEMBL1150977, “A quantitative analysis of kinase inhibitor selectivity” (Nat Biotechnol, 2008).

Assays:
[1] = biological target: Platelet-derived growth factor receptor alpha (Homo sapiens, UniProt P16234)
[2] = biological target: Mitogen-activated protein kinase 14 (Homo sapiens, UniProt Q16539)
[3] = biological target: Casein kinase I isoform gamma-1 (Homo sapiens, UniProt Q9HCP0)
[4] = biological target: T1, Serine/threonine-protein kinase 4 (Homo sapiens, UniProt Q13043)
T1 sequence (Q13043 whole entry): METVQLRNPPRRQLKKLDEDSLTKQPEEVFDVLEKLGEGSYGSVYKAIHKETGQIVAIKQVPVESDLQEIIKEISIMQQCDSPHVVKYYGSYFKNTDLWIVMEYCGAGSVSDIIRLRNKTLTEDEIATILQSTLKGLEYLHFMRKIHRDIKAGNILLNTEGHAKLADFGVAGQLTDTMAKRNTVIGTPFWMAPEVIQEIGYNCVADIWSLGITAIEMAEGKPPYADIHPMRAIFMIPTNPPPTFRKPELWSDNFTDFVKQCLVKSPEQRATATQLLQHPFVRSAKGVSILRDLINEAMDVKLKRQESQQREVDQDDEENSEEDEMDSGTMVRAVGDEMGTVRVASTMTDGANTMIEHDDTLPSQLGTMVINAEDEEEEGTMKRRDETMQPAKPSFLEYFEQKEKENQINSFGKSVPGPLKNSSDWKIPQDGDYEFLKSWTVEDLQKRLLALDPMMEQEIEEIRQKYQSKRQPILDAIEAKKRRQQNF

[5] = biological target: Serine/threonine-protein kinase N2 (Homo sapiens, UniProt Q16513)
Sequence of Serine/threonine-protein kinase N2 (Q16513 whole entry): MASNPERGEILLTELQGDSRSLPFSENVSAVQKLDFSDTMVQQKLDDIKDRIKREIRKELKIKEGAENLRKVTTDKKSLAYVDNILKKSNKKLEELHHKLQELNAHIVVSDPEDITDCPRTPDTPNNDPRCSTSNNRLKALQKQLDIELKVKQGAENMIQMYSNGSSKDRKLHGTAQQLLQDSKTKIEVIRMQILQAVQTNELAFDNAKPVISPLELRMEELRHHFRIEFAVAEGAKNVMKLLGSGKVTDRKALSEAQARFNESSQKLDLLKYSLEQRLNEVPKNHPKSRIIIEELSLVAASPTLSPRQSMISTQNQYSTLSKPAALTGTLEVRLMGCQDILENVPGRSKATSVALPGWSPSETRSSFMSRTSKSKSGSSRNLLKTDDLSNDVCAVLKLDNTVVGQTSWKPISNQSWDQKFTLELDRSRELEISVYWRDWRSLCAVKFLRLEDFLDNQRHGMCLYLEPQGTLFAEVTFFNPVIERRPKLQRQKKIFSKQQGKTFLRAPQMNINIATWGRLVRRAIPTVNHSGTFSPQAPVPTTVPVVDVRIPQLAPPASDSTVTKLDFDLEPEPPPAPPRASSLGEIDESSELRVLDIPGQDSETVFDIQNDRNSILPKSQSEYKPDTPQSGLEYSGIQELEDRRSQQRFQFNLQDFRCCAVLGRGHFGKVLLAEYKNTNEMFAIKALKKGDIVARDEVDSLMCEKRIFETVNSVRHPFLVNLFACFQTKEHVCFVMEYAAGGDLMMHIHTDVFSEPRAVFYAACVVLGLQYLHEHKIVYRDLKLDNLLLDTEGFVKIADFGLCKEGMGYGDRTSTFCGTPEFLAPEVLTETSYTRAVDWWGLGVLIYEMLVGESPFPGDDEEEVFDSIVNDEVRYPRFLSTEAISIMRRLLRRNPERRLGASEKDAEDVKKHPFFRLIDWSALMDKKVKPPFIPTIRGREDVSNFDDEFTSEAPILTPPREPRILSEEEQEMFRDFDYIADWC

Ephrin type-A receptor 4 = Ephrin type-A receptor 4 (Homo sapiens, UniProt P54764)
Sequence of Ephrin type-A receptor 4 (P54764 whole entry): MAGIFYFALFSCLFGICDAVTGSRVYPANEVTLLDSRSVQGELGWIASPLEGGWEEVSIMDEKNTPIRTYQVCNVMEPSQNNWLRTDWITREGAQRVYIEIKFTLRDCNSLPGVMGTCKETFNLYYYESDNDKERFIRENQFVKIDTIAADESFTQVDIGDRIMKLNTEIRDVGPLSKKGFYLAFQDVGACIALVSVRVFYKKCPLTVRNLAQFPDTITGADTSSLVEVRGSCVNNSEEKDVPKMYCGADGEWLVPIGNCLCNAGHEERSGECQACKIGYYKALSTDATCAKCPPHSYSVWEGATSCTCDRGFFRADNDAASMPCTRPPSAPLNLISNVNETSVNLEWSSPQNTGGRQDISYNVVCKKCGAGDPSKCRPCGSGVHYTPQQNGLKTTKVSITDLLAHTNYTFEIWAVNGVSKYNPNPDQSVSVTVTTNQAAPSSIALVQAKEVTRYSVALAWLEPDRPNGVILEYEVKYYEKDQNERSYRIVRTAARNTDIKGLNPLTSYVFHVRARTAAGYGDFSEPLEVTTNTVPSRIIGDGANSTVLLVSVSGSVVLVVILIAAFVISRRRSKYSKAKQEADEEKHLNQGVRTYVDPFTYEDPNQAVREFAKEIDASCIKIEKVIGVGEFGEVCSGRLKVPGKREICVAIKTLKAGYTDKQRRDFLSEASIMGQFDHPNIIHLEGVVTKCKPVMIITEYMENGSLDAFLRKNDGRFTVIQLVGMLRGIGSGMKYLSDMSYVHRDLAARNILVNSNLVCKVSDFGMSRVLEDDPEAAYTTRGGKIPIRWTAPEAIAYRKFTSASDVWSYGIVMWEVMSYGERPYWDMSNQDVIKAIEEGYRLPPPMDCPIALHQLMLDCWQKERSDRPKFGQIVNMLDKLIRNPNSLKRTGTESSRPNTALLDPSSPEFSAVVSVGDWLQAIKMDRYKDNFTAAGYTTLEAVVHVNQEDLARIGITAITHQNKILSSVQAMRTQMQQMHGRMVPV

[6] = biological target: Calcium/calmodulin-dependent protein kinase type II subunit gamma (Homo sapiens, UniProt Q13555)
Sequence of Calcium/calmodulin-dependent protein kinase type II subunit gamma (Q13555 whole entry): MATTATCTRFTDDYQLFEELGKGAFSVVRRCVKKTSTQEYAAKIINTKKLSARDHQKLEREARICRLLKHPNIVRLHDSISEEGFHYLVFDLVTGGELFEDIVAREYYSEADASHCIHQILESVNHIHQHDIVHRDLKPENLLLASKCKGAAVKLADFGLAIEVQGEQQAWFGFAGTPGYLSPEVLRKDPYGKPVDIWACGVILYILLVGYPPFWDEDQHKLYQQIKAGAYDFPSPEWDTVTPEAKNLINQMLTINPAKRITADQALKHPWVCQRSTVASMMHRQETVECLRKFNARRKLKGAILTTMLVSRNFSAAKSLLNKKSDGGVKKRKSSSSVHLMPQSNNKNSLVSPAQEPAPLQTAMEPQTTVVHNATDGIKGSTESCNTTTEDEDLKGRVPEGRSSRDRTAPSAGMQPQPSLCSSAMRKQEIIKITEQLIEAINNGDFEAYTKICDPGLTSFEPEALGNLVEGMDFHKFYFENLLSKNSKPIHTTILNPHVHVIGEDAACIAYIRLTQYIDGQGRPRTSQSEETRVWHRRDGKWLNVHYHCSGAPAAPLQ

[7] = biological target: Receptor-type tyrosine-protein kinase FLT3 (Homo sapiens, UniProt P36888, D835H)
[8] = biological target: Epidermal growth factor receptor (Homo sapiens, UniProt P00533, S752-I759DEL)
[9] = biological target: Epidermal growth factor receptor (Homo sapiens, UniProt P00533, E746-A750DEL)
[10] = biological target: Epidermal growth factor receptor (Homo sapiens, UniProt P00533, L747-S752DEL/P753S)
[11] = biological target: Epidermal growth factor receptor (Homo sapiens, UniProt P00533, L858R)
[12] = biological target: Epidermal growth factor receptor (Homo sapiens, UniProt P00533)
[13] = biological target: Epidermal growth factor receptor (Homo sapiens, UniProt P00533, L747-T751DEL)
[14] = biological target: Epidermal growth factor receptor (Homo sapiens, UniProt P00533, L861Q)
[15] = biological target: Cyclin-dependent kinase 9 (Homo sapiens, UniProt P50750)
Sequence of Cyclin-dependent kinase 9 (P50750 whole entry): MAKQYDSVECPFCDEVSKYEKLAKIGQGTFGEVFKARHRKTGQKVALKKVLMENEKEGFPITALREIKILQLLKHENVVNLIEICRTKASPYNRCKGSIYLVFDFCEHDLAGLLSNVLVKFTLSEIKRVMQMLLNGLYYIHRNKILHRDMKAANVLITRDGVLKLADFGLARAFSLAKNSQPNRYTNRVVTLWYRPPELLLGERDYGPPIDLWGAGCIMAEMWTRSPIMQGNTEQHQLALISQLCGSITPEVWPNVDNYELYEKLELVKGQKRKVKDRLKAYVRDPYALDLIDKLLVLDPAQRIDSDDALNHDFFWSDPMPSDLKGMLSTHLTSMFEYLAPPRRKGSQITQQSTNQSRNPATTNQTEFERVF

[16] = biological target: Epidermal growth factor receptor (Homo sapiens, UniProt P00533, G719S)
[17] = biological target: Epidermal growth factor receptor (Homo sapiens, UniProt P00533, A750P/L747-E749DEL)
[18] = biological target: Epidermal growth factor receptor (Homo sapiens, UniProt P00533, G719C)

Sequence of Platelet-derived growth factor receptor alpha (P16234 whole entry): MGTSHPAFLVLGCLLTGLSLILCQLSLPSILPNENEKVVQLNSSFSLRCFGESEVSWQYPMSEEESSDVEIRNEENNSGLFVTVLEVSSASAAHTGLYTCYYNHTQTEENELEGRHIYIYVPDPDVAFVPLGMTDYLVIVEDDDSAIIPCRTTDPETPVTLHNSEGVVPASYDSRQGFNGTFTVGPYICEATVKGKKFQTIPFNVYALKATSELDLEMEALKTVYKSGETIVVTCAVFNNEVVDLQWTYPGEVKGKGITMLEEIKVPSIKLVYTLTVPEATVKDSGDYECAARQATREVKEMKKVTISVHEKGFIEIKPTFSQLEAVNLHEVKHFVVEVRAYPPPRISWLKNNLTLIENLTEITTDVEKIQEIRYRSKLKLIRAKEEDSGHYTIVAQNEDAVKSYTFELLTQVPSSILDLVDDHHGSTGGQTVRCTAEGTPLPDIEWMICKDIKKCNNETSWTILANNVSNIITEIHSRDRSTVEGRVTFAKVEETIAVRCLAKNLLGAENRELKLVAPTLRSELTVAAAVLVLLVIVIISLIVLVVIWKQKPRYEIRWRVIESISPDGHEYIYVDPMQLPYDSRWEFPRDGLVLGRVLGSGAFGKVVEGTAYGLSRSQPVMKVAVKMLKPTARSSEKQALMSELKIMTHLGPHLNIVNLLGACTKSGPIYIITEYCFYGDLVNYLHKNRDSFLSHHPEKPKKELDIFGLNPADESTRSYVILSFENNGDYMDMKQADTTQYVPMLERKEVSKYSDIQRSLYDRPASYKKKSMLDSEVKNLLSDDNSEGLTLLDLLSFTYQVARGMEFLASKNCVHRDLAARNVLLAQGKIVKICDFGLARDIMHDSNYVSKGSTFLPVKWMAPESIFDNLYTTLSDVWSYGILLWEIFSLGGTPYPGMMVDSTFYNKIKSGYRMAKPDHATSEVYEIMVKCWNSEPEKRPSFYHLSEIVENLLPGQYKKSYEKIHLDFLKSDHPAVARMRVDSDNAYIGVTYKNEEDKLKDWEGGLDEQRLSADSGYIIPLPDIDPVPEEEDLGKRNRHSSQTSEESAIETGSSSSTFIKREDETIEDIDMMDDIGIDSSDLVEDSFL
Sequence of Casein kinase I isoform gamma-1 (Q9HCP0 whole entry, canonical isoform): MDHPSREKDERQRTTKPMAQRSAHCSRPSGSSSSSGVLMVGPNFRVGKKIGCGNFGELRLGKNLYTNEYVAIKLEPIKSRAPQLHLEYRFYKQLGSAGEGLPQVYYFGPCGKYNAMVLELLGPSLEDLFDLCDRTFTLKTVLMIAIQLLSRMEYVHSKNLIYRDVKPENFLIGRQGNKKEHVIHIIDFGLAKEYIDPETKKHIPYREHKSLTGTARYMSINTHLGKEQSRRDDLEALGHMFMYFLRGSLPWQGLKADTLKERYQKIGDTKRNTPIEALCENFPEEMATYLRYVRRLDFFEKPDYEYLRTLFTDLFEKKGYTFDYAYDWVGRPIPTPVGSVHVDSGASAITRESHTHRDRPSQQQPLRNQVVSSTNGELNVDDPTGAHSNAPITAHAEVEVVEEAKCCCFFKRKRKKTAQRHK
Sequence of Mitogen-activated protein kinase 14 (Q16539 whole entry, canonical isoform): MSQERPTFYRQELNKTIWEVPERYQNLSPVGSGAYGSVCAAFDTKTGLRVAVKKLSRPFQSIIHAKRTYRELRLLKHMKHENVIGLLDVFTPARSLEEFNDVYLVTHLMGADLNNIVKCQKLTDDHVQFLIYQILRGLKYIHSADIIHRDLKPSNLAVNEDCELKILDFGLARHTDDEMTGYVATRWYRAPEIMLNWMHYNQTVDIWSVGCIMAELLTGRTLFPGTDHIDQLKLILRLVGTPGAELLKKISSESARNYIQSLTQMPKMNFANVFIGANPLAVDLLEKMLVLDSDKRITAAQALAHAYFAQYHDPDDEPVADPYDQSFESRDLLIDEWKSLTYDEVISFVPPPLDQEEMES

SMILES | Kd [1] [µM] | Kd [2] [µM] | Kd [3] [µM] | Kd [4] [µM] | Kd [5] [µM] | Kd (Ephrin type-A receptor 4) [µM] | Kd [6] [µM] | Kd [7] [µM] | Kd [8] [µM] | Kd [9] [µM] | Kd [10] [µM] | Kd [11] [µM] | Kd [12] [µM] | Kd [13] [µM] | Kd [14] [µM] | Kd [15] [µM] | Kd [16] [µM] | Kd [17] [µM] | Kd [18] [µM]
COCC(=O)NC/C=C/c1ccc2ncnc(Nc3ccc(Oc4ccc(C)nc4)c(C)c3)c2c1 [CP-724714] | > 10 | > 10 | > 10 | > 10 | > 10 | > 10 | > 10 | > 10 | – | – | – | – | – | – | – | – | – | – | –
CCOc1cc2ncc(C#N)c(Nc3ccc(F)c(Cl)c3)c2cc1NC(=O)/C=C/CN(C)C [PELITINIB] | > 10 | > 10 | > 10 | – | > 10 | > 10 | > 10 | – | – | – | – | – | – | – | – | – | – | – | –
NC(=O)c1ccc(-c2nc(-c3ccc4c(c3)OCO4)c(-c3ccccn3)[nH]2)cc1 [SB-431542] | > 10 | – | – | > 10 | > 10 | > 10 | > 10 | – | > 10 | > 10 | > 10 | > 10 | > 10 | > 10 | > 10 | > 10 | > 10 | > 10 | > 10
CCN1CCN(Cc2ccc(NC(=O)Nc3ccc(Oc4cc(NC)ncn4)cc3)cc2C(F)(F)F)CC1 [AST-487] | – | – | – | > 10 | – | – | – | – | – | – | – | – | – | – | – | – | – | – | –
Nc1nc(Nc2ccc(S(N)(=O)=O)cc2)nn1C(=O)c1c(F)cccc1F [JNJ-7706621] | – | – | – | 0.13 | – | > 10 | > 10 | – | > 10 | > 10 | > 10 | > 10 | > 10 | > 10 | > 10 | – | > 10 | > 10 | > 10
Oc1ccc(-c2nc(-c3ccncc3)c(-c3ccc(F)cc3)[nH]2)cc1 [SB-202190] | > 10 | – | > 10 | > 10 | > 10 | > 10 | > 10 | > 10 | – | – | – | – | – | – | – | > 10 | – | – | –
